For 26 compounds, T/C results are on record in PubChem BioAssay AID330 (DTP/NCI, 2004).

This test has as its system P388 leukemia ip, CD2F1 mice, survival T/C. Put plainly: NCI In Vivo Anticancer Drug Screen. Data for tumor model P388 Leukemia (intraperitoneal) in CD2F1 (CDF1) mice. As to conditions: endpoint: median survival time, higher = longer survival. The method, boiled down:
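Mice carrying the transplanted tumor received test compound or vehicle. Survival was recorded in each group, and the value is the treated-group measurement divided by that of the vehicle-treated control group.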

Setting [1] is: dose: 25.0 mg/kg/injection, schedule: Q01DX005 (ip), vehicle: saline with Tween-80.
The mark [2] stands for this setting: dose: 50.0 mg/kg/injection, schedule: Q01DX005 (ip), vehicle: saline with Tween-80.
[3] abbreviates: dose: 100.0 mg/kg/injection, schedule: Q04DX002 (ip), vehicle: saline with Tween-80.
[4] abbreviates: dose: 200.0 mg/kg/injection, schedule: Q04DX002 (ip), vehicle: saline with Tween-80.
The mark [5] stands for this setting: dose: 12.5 mg/kg/injection, schedule: Q01DX009 (ip), vehicle: saline with Tween-80.
Where [6] appears, read: dose: 25.0 mg/kg/injection, schedule: Q01DX009 (ip), vehicle: saline with Tween-80.
Where [7] appears, read: dose: 50.0 mg/kg/injection, schedule: Q01DX009 (ip), vehicle: saline.
Where [8] appears, read: dose: 100.0 mg/kg/injection, schedule: Q01DX009 (ip), vehicle: saline.
Where [9] appears, read: dose: 200.0 mg/kg/injection, schedule: Q01DX009 (ip), vehicle: saline.
[10] abbreviates: dose: 100.0 mg/kg/injection, schedule: Q01DX009 (ip), vehicle: Klucel (hydroxypropylcellulose) (HPC).
[11] abbreviates: dose: 200.0 mg/kg/injection, schedule: Q01DX009 (ip), vehicle: Klucel (hydroxypropylcellulose) (HPC).
[12] abbreviates: dose: 12.5 mg/kg/injection, schedule: Q01DX009 (ip), vehicle: saline.
[13] abbreviates: dose: 25.0 mg/kg/injection, schedule: Q01DX009 (ip), vehicle: saline.
Setting [14] is: dose: 50.0 mg/kg/injection, schedule: Q01DX009 (ip), vehicle: Klucel (hydroxypropylcellulose) (HPC).
Where [15] appears, read: dose: 60.0 mg/kg/injection, schedule: Q01DX005 (ip), vehicle: Klucel (hydroxypropylcellulose) (HPC).
The mark [16] stands for this setting: dose: 120.0 mg/kg/injection, schedule: Q01DX005 (ip), vehicle: Klucel (hydroxypropylcellulose) (HPC).
[17] abbreviates: dose: 60.0 mg/kg/injection, schedule: Q01DX005 (ip), vehicle: saline.
The mark [18] stands for this setting: dose: 120.0 mg/kg/injection, schedule: Q01DX005 (ip), vehicle: saline.

Several values for one entry are separate records, joined by “and”; a condition that tells them apart may be missing. Equal values may be shown once. Toxic doses and inconclusive results are not listed. Peptide text beside a SMILES is read from it. * marks the point of attachment. Butyryl = CCCC(=O)*; Bn = c1ccc(C*)cc1

Turning to `Cn1nc(C#N)c(=O)[nH]c1=O`, the T/C runs as follows: (dose: 12.5 mg/kg/injection, schedule: Q01DX005 (ip), vehicle: saline with Tween-80) 99 % of control; under setting [1], 97 % of control; under setting [2], 99 % of control and 100 % of control.
For the compound `O=C(NC(Cc1ccc(Br)cc1)C(=O)O)c1ccc(I)cc1` (centres undefined), the T/C was 98 % of control (dose: 50.0 mg/kg/injection, schedule: Q01DX005 (ip), vehicle: Klucel (hydroxypropylcellulose) (HPC)); 98 % of control (dose: 100.0 mg/kg/injection, schedule: Q01DX005 (ip), vehicle: Klucel (hydroxypropylcellulose) (HPC)); 107 % of control (dose: 200.0 mg/kg/injection, schedule: Q01DX005 (ip), vehicle: Klucel (hydroxypropylcellulose) (HPC)).
Turning to `Brc1ccc2[nH]c3nc(N/N=C/c4cccnc4)nnc3c2c1`, the T/C by setting is: under setting [3], 93 % of control; under setting [4], 91 % of control; (dose: 400.0 mg/kg/injection, schedule: Q04DX002 (ip), vehicle: saline with Tween-80) 99 % of control.
As for `COc1ccc2[nH]c3c(c2c1)CCNC3CC(C)CCC=C(C)C` (centres undefined), the T/C is 99 % of control under setting [5] and 98 % of control under setting [6].
On to `OCC1OC2OC3C(CO)OC(OC4C(CO)OC(OC5C(CO)OC(OC6C(CO)OC(OC7C(CO)OC(OC1C(O)C2O)C(O)C7O)C(O)C6O)C(O)C5O)C(O)C4O)C(O)C3O` (centres undefined), for which the T/C was 94 % of control under setting [7], 89 % of control under setting [8] and 96 % of control under setting [9].
For `CCC(C(N)=O)C1=CCCCC1` (centres undefined), the T/C reads like this: (dose: 100.0 mg/kg/injection, schedule: Q04DX003 (ip), vehicle: saline with Tween-80) 104 % of control; (dose: 200.0 mg/kg/injection, schedule: Q04DX003 (ip), vehicle: saline with Tween-80) 100 % of control; (dose: 400.0 mg/kg/injection, schedule: Q04DX003 (ip), vehicle: saline with Tween-80) 100 % of control.
Consider `Cc1ccc(S(=O)(=O)OCC2CCCC2COS(=O)(=O)c2ccc(C)cc2)cc1` (centres undefined), for which the T/C is 100 % of control under setting [10]; 106 % of control under setting [11]; 105 % of control (dose: 400.0 mg/kg/injection, schedule: Q01DX009 (ip), vehicle: Klucel (hydroxypropylcellulose) (HPC)).
`Nc1nc(N)c2cc(CNc3ccc(Cl)c(Cl)c3)ccc2n1`: the T/C reads like this: (dose: 6.25 mg/kg/injection, schedule: Q01DX009 (ip), vehicle: saline with Tween-80) 107 % of control; under setting [5], 110 % of control; under setting [6], 109 % of control.
With `O=Nc1ccc2ccccc2c1O`, the T/C (dose: 12.5 mg/kg/injection, schedule: Q01DX001 (ip), vehicle: Klucel (hydroxypropylcellulose) (HPC)) was 103 % of control; the T/C (dose: 25.0 mg/kg/injection, schedule: Q01DX001 (ip), vehicle: Klucel (hydroxypropylcellulose) (HPC)) was 108 % of control; the T/C (dose: 50.0 mg/kg/injection, schedule: Q01DX001 (ip), vehicle: Klucel (hydroxypropylcellulose) (HPC)) is 111 % of control.
In the case of `CCCCCCCCCCCCCCCCN1CCSCC1`, the T/C was 91 % of control under setting [12]; 97 % of control under setting [13]; 98 % of control and 100 % of control under setting [7]; 92 % of control under setting [8].
With `Oc1ccccc1C=Nc1ccccc1N=Cc1ccccc1O.[Zn]`, the T/C reads like this: under setting [14], 97 % of control; under setting [10], 98 % of control; under setting [11], 95 % of control.
On to `O=C(Cc1ccccc1)N1CCc2cc3c(cc2/C1=C/c1cc2c(cc1Br)OCO2)OCO3`, for which the T/C was 100 % of control (dose: 12.5 mg/kg/injection, schedule: Q01DX001 (ip), vehicle: saline + alcohol); 99 % of control (dose: 25.0 mg/kg/injection, schedule: Q01DX001 (ip), vehicle: saline + alcohol); 100 % of control (dose: 50.0 mg/kg/injection, schedule: Q01DX001 (ip), vehicle: saline + alcohol).
`Nc1nc(SCC(=O)O)[nH]c(=O)c1NS(=O)(=O)c1ccc([N+](=O)[O-])cc1`: the T/C runs as follows: under setting [15], 96 % of control; under setting [16], 98 % of control; (dose: 240.0 mg/kg/injection, schedule: Q01DX005 (ip), vehicle: Klucel (hydroxypropylcellulose) (HPC)) 102 % of control.
With `COc1cccc(C(=O)CCN(C)C(=O)OCc2ccccc2)c1OCc1ccccc1`, the T/C by setting is: under setting [1], 94 % of control; under setting [2], 103 % of control; (dose: 100.0 mg/kg/injection, schedule: Q01DX005 (ip), vehicle: saline with Tween-80) 103 % of control.
As to `COC(=O)Cn1/c(=N\N=C(/C)c2ccc(OC)cc2)sc2ccccc21`, the T/C runs as follows: (dose: 100.0 mg/kg/injection, schedule: Q01DX001 (ip), vehicle: saline with Tween-80) 101 % of control; (dose: 200.0 mg/kg/injection, schedule: Q01DX001 (ip), vehicle: saline with Tween-80) 117 % of control; (dose: 400.0 mg/kg/injection, schedule: Q01DX001 (ip), vehicle: saline with Tween-80) 92 % of control.
As for `CC(C)(C)c1cc(-c2cc(C(C)(C)C)nc(N)n2)nc(N)n1`, the T/C was 87 % of control under setting [17] and 105 % of control under setting [18].
As for `Cc1c2c(=O)oc3ccc(Cl)cc3c2nn1-c1ccccc1`, the T/C under setting [15] was 96 % of control and the T/C under setting [16] is 93 % of control.
On to `CSCNc1ncnc2c1ncn2C1OC(CO)C(O)C1O` (centres undefined), for which the T/C under setting [3] is 120 % of control.
In the case of `COc1ccc(N2C(=S)N(c3cccc(Cl)c3Cl)C(=O)C(N=Nc3ccccc3Cl)C2O)cc1` (centres undefined), the T/C reads like this: (dose: 100.0 mg/kg/injection, schedule: Q04DX003 (ip), vehicle: distilled water + alcohol) 102 % of control; (dose: 200.0 mg/kg/injection, schedule: Q04DX003 (ip), vehicle: distilled water + alcohol) 99 % of control; (dose: 400.0 mg/kg/injection, schedule: Q04DX003 (ip), vehicle: distilled water + alcohol) 97 % of control.
Turning to `O=C1CCCC(=O)OCCOCCOCCOCCOCCO1`, the T/C reads like this: under setting [12], 104 % of control and 108 % of control; under setting [13], 104 % of control and 95 % of control; under setting [7], 104 % of control and 108 % of control and 120 % of control; under setting [8], 105 % of control; under setting [9], 105 % of control.
For the compound `CSCc1ccc(C(N)C(=O)O)cc1` (centres undefined), the T/C was 99 % of control (dose: 50.0 mg/kg/injection, schedule: Q04DX002 (ip), vehicle: saline with Tween-80); 96 % of control under setting [3]; 99 % of control under setting [4].
In the case of `CNC(=O)OCc1nc(SC)n(C)c1COC(=O)NC`, the T/C reads like this: (dose: 25.0 mg/kg/injection, schedule: Q01DX005 (ip), vehicle: saline) 160 % of control; (dose: 30.0 mg/kg/injection, schedule: Q01DX005 (ip), vehicle: saline) 166 % of control and 172 % of control and 187 % of control; (dose: 34.0 mg/kg/injection, schedule: Q01DX005 (ip), vehicle: saline) 158 % of control and 164 % of control and 173 % of control; (dose: 50.0 mg/kg/injection, schedule: Q01DX005 (ip), vehicle: saline) 184 % of control and 193 % of control; (dose: 51.0 mg/kg/injection, schedule: Q01DX005 (ip), vehicle: saline) 186 % of control and 196 % of control and 200 % of control; (dose: 77.0 mg/kg/injection, schedule: Q01DX005 (ip), vehicle: saline) 188 % of control. In addition, for the setting “dose: 100.0 mg/kg/injection, schedule: Q01DX005 (ip), vehicle: saline”, the T/C is 236 % of control.
For the compound `CC1(C)OC2(CC1C1(C)C=CC(=O)O1)CC1(O)C(CCC34CC13C(=O)OC4c1ccoc1)O2` (centres undefined), the T/C runs as follows: under setting [7], 97 % of control; under setting [8], 90 % of control; under setting [9], 90 % of control.
In the case of `OC(CCC1OCCO1)(CCC1OCCO1)c1ccccc1`, the T/C reads like this: under setting [14], 97 % of control; under setting [10], 103 % of control; under setting [11], 93 % of control.
For `CCCC(=O)NC(CSCc1ccccc1)C(=O)NC(CCC(=O)OC)C(=O)OC` (centres undefined) (Butyryl-Cys(Bn)-Glu(OMe)-OMe; configuration not given here), the T/C was 104 % of control (dose: 50.0 mg/kg/injection, schedule: Q01DX009 (ip), vehicle: saline with Tween-80); 104 % of control (dose: 100.0 mg/kg/injection, schedule: Q01DX009 (ip), vehicle: saline with Tween-80); 96 % of control (dose: 200.0 mg/kg/injection, schedule: Q01DX009 (ip), vehicle: saline with Tween-80).
As to `CCC1C2Cc3ccc(O)cc3C1(C)CCN2` (centres undefined), the T/C under setting [17] was 95 % of control and the T/C under setting [18] is 98 % of control.
